One experiment deals with T1, RET^WT (Homo sapiens, UniProt P07949).
T1 construct: GST-RET^WT (658-1114 aa, final concentration of 0.5 nM)
T1 sequence (P07949 658-1114): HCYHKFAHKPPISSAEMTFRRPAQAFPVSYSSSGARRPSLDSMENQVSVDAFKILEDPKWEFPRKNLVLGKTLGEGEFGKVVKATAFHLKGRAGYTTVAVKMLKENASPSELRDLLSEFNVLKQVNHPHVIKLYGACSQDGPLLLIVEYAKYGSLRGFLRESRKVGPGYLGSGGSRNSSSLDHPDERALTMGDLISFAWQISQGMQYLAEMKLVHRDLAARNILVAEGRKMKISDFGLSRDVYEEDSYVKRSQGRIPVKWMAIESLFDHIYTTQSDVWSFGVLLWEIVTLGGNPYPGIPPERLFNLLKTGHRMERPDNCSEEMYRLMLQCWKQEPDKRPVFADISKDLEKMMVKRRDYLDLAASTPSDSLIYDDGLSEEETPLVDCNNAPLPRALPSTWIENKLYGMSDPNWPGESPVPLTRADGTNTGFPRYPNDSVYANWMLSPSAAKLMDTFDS
Kind of experiment: In vitro enzymatic activity assay on RET^WT (HTRF). Type of experiment: biochemical. The following applies: GST-RET^WT (658-1114 aa) 0.5 nM, ATP 25 μM. The procedure:
1. In Vitro Enzymatic Activity Assay for Compounds on RET^WT
The compounds were diluted 5-fold with 100% DMSO starting from 0.2 mM (7 concentrations in total), and 2 μL of each concentration was added to 48 μL of reaction buffer (50 mM HEPES pH7.5, 0.1 mM Na3VO4, 5 mM MgCl2. 1 mM DTT, 0.001% Tween 20, and 100 μg/ml BSA) for dilution and mixing.
The 384-well plate was placed in an incubator and reacted at 23° C. for 2 h before the reaction was stopped by the addition of 5 μL of TK Antibody (purchased from Cisbio) and 5 μL of Streptavidin-XL665 (purchased from Cisbio). […] The enzymatic activity signal of RET^WT was measured at 7 concentrations for each compound and the data were calculated using GraphPad Prism software to obtain the IC50 value for the compound.

A further experiment addresses VEGFR2 (Homo sapiens, UniProt P35968). Put plainly: In vitro enzymatic activity assay on VEGFR2 (HTRF). The following applies: GST-VEGFR2 0.1 nM, ATP 2.5 μM. Type of experiment: biochemical. The procedure:
3. n Vitro Enzymatic Activity Assay for Compounds on VEGFR2
The compounds were diluted 5-fold with 100% DMSO starting from 1 mM (7 concentrations in total), and 2 μL of each concentration was added to 48 μL of reaction buffer (50 mM HEPES pH 7.5, 0.1 mM Na3VO4, 5 mM MgCl2, 1 mM MnCl2, 1 mM DTT, 0.001% Tween 20, and 100 μg/ml BSA) for dilution and mixing. 2.5 μL of compounds and 5 μL of GST-VEGFR2 (final concentration of 0.1 nM) were added to a 384-well plate (OptiPlate-384, purchased from PerkinElmer), the mixture was mixed by centrifugation, and 2.5 μL of ATP (final concentration of 2.5 μM) and TK Peptide Substrate mixture (final concentration of 1 μM, purchased from Cisbio) were added to start the reaction, with a total reaction volume of 10 μL. The 384-well plate was placed in an incubator and reacted at 23° C. for 1.5 h before the reaction was stopped by the addition of 5 μL of TK Antibody (purchased from Cisbio) and 5 μL of Streptavidin-XL665 (purchased from Cisbio). After further incubation in the incubator for 1 h. fluorescence values (excitation at 320 nm, detecting emitted light at 665 nm and 620 nm, and a ratio of the two as an enzyme activity signal) were read on Envision (purchased from PerkinElmer). The enzymatic activity signal of VEGFR2 was measured at 7 concentrations for each compound and the data were calculated using GraphPad Prism software to obtain the IC50 value for the compound.
On the technique in general: Time-resolved FRET reads energy transfer from a long-lived donor to a nearby acceptor.

Sequence of VEGFR2 (P35968 20-1356): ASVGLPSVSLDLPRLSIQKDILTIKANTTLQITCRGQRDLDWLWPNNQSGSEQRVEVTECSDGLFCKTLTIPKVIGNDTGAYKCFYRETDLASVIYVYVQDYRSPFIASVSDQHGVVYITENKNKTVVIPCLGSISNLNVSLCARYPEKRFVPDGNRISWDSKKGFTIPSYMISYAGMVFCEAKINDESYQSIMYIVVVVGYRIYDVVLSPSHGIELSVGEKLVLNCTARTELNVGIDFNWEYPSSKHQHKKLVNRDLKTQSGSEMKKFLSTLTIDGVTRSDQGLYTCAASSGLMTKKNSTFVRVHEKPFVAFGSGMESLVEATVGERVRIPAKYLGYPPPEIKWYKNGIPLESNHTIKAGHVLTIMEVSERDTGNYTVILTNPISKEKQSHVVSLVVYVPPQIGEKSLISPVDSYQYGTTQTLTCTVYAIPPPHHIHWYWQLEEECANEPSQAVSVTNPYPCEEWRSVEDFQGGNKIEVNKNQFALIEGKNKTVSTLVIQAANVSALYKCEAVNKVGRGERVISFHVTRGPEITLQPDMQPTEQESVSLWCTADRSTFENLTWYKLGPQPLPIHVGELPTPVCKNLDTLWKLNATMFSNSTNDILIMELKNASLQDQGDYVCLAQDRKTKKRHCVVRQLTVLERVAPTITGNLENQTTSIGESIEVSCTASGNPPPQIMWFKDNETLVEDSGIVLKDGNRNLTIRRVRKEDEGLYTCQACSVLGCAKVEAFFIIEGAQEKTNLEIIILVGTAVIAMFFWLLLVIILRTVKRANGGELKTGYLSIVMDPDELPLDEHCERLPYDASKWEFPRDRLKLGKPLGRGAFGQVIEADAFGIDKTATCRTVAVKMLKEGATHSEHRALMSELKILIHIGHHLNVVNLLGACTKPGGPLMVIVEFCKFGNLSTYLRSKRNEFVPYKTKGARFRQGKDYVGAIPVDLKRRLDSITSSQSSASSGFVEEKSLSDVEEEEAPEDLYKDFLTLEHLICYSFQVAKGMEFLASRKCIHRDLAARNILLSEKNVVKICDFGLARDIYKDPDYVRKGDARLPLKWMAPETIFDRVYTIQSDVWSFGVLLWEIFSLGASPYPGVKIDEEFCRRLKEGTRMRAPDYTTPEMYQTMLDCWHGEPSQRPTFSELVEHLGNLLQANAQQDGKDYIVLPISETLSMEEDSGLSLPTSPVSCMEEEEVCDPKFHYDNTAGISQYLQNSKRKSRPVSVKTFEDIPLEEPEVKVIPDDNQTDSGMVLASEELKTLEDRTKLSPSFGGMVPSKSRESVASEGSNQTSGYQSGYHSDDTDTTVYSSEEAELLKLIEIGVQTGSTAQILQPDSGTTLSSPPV

Consider `CCn1cc(-c2cc(-c3ccc(N4CC5CC(C4)N5Cc4ccc(S(C)(=O)=O)cc4)nc3)c3c(C#N)cnn3c2)cn1` [Example 44, 6-(1-ethyl-1Hpyrazol-4-yl)-4-(6-(6-(4-(methylsulfonyl)benzyl)-3,6-diazabicyclo[3.1.1]heptan-3-yl)pyridin-3 yl)pyrazolo[1,5-a]pyridine-3-carbonitrile], for which the concentration for half-maximal inhibition (IC50) (as a rule, the point on the concentration scale where inhibition reaches its midpoint) against RET^WT is 0.247 nM. `Cn1cc(-c2cc(-c3ccc(N4CC5CCC(C4)N5Cc4ccc(S(C)(=O)=O)cc4)nc3)c3c(C#N)cnn3c2)cn1` [Example 57, 6-(1-methyl-1Hpyrazol-4-yl) 4-(6-(8-(4-(methylsulfonyl)benzyl)-3,8-diazabicyclo[3.2.1]octan-3-yl)pyridin-3-yl)pyrazolo[1,5-a]pyridine-3-carbonitrile] had a half-maximal inhibitory concentration (IC50) at VEGFR2 of 8.94 nM. Consider `CSc1ccc(CN2C3CC2CN(c2ccc(-c4cc(-c5cnn(C)c5)cn5ncc(C#N)c45)cn2)C3)cn1` [Example 50, 6-(1-methyl-1Hpyrazol-4-yl)-4-(6-(6-((6-(methylthio)pyridin-3-yl)methyl)-3,6-diazabicyclo[3.1.1]heptan-3-yl)pyridin-3-yl)pyrazolo[1,5-a]pyridine-3-carbonitrile], for which the IC50 against RET^WT was 0.181 nM. The molecule `CS(=O)(=O)c1ccc(CN2CCN(c3ccc(-c4cc(-c5cnn(C(F)F)c5)cn5ncc(C#N)c45)cn3)CC2)cn1` [Example 63, 6-(1-(difluoromethyl)-1Hpyrazol-4-yl)-4-(6-(4-((6-(methylsulfonyl)pyridin-3-yl)methyl)piperazin-1-yl)pyridin-3-yl)pyrazolo[1,5-a]pyridine-3-carbonitrile] returned a 50% inhibitory concentration (IC50) at RET^WT of 2.96 nM. This IC50 is about 16-fold higher than that of the molecule before. On to `CS(=O)(=O)c1ccccc1CN1CCN(c2ccc(-c3cc(-c4cnn(C(F)F)c4)cn4ncc(C#N)c34)cn2)CC1` [Example 48, 6-(1-difluoromethyl-1Hpyrazol-4-yl)-4-(6-(4-(2-(methylsulfonyl)benzyl)piperazin-1-yl)pyridin-3-yl)pyrazolo[1,5-a]pyridine-3-carbonitrile], for which the IC50 at VEGFR2 was 10.1 nM; against RET^WT, 0.57 nM. Take `CSc1cccc(CN2CCN(c3ccc(-c4cc(-c5cnn(C)c5)cn5ncc(C#N)c45)cn3)CC2)n1` [Example 51, 6-(1-methyl-1Hpyrazol-4-yl)-4-(6-(4-((6-(methylthio)pyridin-2-yl)methyl)piperazin-1-yl)pyridin-3-yl)pyrazolo[1,5-a]pyridine-3-carbonitrile]: the IC50 against VEGFR2 came to 6.2 nM; against RET^WT it was 0.328 nM. For the molecule `CS(=O)(=O)c1ccc(CN2CCN(c3ccc(-c4cc(N5CC(C#N)C5)cn5ncc(C#N)c45)cn3)CC2)cc1` [Example 40, 6-(3-cyanoazetidin-1-yl)-4-(6-(4-(4-(methylsulfonyl)benzyl)piperazin-1-yl)pyridin-3-yl)pyrazolo[1,5-α]pyridin-3-carbonitrile], on RET^WT, the IC50 came to 1.31 nM.

On RET^WT, `CS(=O)(=O)c1ccc(CN2CCN(c3ccc(-c4cc(-c5cnn(C(F)F)c5)cn5ncc(C#N)c45)cn3)CC2)nc1` [Example 80, 6-(1-(difluoromethyl)-1Hpyrazol-4-yl)-4-(6-(4-((5-(methylsulfonyl)pyridin-2-yl)methyl)piperazin-1-yl)pyridin-3-yl) pyrazolo[1,5-a] pyridine-3-carbonitrile] returned a half-maximal inhibitory concentration (IC50) of 1.58 nM. The molecule `COC/C=C/C(=O)N1C2CC1CN(c1ccc(-c3cc(-c4cnn(C(F)F)c4)cn4ncc(C#N)c34)cn1)C2` [Example 62, (E)-6-(1-(difluoromethyl)-1Hpyrazol-4-yl)-4-(6-(6-(4-methoxybut-2-enoyl)-3,6-diazabicyclo[3.1.1]heptan-3-yl)pyridin-3-yl)pyrazolo[1,5-a]pyridine-3-carbonitrile] gave an IC50 on RET^WT of 1.11 nM. As for `CSc1ccc(CN2C3CC2CN(c2ccc(-c4cc(-c5cnn(C(F)F)c5)cn5ncc(C#N)c45)cn2)C3)cc1` [Example 82, 6-(1-difluoromethyl-1Hpyrazol-4-yl)-4-(6-(6-(4-(methylthio)benzyl)-3,6-diazabicyclo[3.1.1]heptan-3-yl)pyridin-3-yl)pyrazolo[1,5-a]pyridine-3-carbonitrile], the IC50 against VEGFR2 came to 0.734 nM; against RET^WT it was 0.136 nM. Turning to `CSc1ccc(CN2CCN(c3ccc(-c4cc(-c5cnn(C(F)F)c5)cn5ncc(C#N)c45)cn3)CC2)cc1` [Example 81, 4-(6-(4-(4-(methylthio)benzyl)piperazin-1-yl)pyridin-3-yl)-6-(1-(difluoromethyl)-1Hpyrazol-4-yl)pyrazolo[1,5-a]pyridine-3-carbonitrile], the midpoint of inhibition against RET^WT, the IC50, lay at 1.33 nM. Molecule `COc1ncc(CN2C3CC2CN(c2ccc(-c4cc(N5CC(C)(O)C5)cn5ncc(C#N)c45)cn2)C3)cn1` [Example 58, 6-(3-hydroxy-3-methylazetidin-1-yl)-4-(6-(6-((2-methoxypyrimidin-5-yl)methyl)-3,6-diazabicyclo[3.1.1]heptan-3-yl)pyridin-3-yl)pyrazolo[1,5-a]pyridine-3-carbonitrile] yielded an IC50 on RET^WT of 1.34 nM. Turning to `N#Cc1cnn2cc(-c3cnn(C(F)F)c3)cc(-c3ccc(N4CC5CC(C4)N5Cc4ccc([N+](=O)[O-])cc4)nc3)c12` [Example 83, 4-(6-(6-(4-nitrobenzyl)-3,6-diazabicyclo[3.1.1]heptan-3-yl)pyridin-3-yl)-6-(1-(difluoromethyl)-1Hpyrazol-4-yl)pyrazolo[1,5-a]pyridine-3-carbonitrile], the IC50 at VEGFR2 was determined as 4.59 nM; against RET^WT, 0.12 nM. On the same counts, the results for `CSc1ccc(CN2C3CC2CN(c2ccc(-c4cc(OCC(C)(C)O)cn5ncc(C#N)c45)cn2)C3)cn1` [Example 11, 6-(2-hydroxy-2-methylpropoxy)-4-(6-(6-((6-(methylthio)pyridin-3-yl)methyl)-3,6-diazabicyclo[3.1.1]heptan-3-yl)pyridin-3-yl)pyrazolo[1,5-a]pyridine-3-carbonitrile] are 37 nM and 1.73 nM. On VEGFR2, `CCSc1ccc(CN2CCN(c3ccc(-c4cc(-c5cnn(C)c5)cn5ncc(C#N)c45)cn3)CC2)cn1` [Example 18, 6-(1-methyl-1Hpyrazol-4-yl)-4(6-(4-((6-(ethylthio)pyridin-3-yl)methyl)piperazin-1-yl)pyridin-3-yl)pyrazolo[1,5-a]pyridine-3-carbonitnile] displayed a half-inhibitory concentration (IC50) of 13 nM. In the case of `COc1ccc(CN2CCN(c3ccc(-c4cc(N5CCOCC5)cn5ncc(C#N)c45)cn3)CC2)cn1` [Example 19, 6-(morpholino-1-yl)-4-(6-(4-((6-methoxypyridin-3-yl)methyl)piperazin-1-yl)pyridin-3-yl)pyrazolo[1,5-a]pyridine-3-carbonitrile], the concentration for half-maximal inhibition (IC50) is 94 nM against VEGFR2 and 0.636 nM against RET^WT. Turning to `COc1ccc(CN2C3CC2CN(c2ccc(-c4cc(N5CC(OC)C5)cn5ncc(C#N)c45)cn2)C3)cn1` [Example 27, 6-(3-methoxyazetidin-1-yl)-4-(6-(6-((6-methoxypyridin-3-yl)methyl)-3,6-diazabicyclo[3.1.1]heptan-3-yl)pyridin-3-yl)pyrazolo[1,5-a]pyridine-3-carbonitrile], the figures for the concentration for half-maximal inhibition (IC50) at VEGFR2 and on RET^WT were 2.28 nM and 0.536 nM, respectively. On the same counts, the results for `CSc1ccc(CN2C3CC2CN(c2ccc(-c4cc(-c5cnn(C)c5)cn5ncc(C#N)c45)cn2)C3)cc1` [Example 59, 6-(1-methyl-1Hpyrazol-4-yl)-4-(6-(6-(4-(methylthio)benzyl)-3,6-diazabicyclo[3.1.1]heptan-3-yl)pyridin-3-yl)pyrazolo[1,5-a]pyridine-3-carbonitrile] are 0.154 nM and 0.066 nM.

For the molecule `CSc1ccc(CN2CCN(c3ccc(-c4cc(-c5cnn(C(F)F)c5)cn5ncc(C#N)c45)cn3)CC2)cn1` [Example 75, 6-(1-(difluoromethyl)-1Hpyrazol-4-yl)-4-(6-(4-((6-(methylthio)pyridin-3-yl)methyl)piperazin-1-yl)pyridin-3-yl) pyrazolo[1,5-a] pyridine-3-carbonitrile], the IC50 against RET^WT was found to be 0.943 nM. This counts as sub-nanomolar.

These data come from US12583855B2, “RET selective inhibitor, preparation method therefor and use thereof” (SHOUYAO HOLDINGS (BEIJING) CO., LTD., priority 2019, dated 2026).
